Usually melting point stands for the temperature, or range, at which the solid turns liquid.

Here are results for 19 compounds from patent US20070249620A1, “Urea Derivative” (priority 2004, published 2007).

One series addresses T1, mouse DGAT1 (Mus musculus, UniProt Q9Z2A7).
T1 construct: made in house; host or cells: insect cells (High Five, Sf9, Sf21, etc.), baculovirus expression system (Invitrogen)
T1 sequence (Q9Z2A7 1-498): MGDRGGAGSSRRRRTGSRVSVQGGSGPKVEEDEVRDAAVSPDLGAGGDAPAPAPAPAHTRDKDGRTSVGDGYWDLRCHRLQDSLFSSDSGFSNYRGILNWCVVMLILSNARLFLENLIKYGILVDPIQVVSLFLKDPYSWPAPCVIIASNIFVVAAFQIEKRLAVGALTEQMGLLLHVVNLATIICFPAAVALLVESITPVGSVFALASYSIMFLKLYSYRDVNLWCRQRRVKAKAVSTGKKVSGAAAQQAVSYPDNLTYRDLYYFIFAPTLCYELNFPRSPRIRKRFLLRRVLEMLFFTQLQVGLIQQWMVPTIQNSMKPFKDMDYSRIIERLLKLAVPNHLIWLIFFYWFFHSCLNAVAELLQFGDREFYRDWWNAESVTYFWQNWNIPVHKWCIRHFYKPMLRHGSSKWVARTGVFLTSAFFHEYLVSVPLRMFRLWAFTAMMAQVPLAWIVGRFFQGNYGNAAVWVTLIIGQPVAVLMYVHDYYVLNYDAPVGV
Put plainly: DGAT1 inhibitory effect test (microsome fraction, [14C]-oleoyl-CoA, triglyceride radioactivity by TLC). Type of series: biochemical. To be noted: 0.5 h; concentration of the test compound 0.1 μg/ml; mouse DGAT1 microsomes, 23° C., 30 minutes; read-out: Inhibitory ratio. A digest of the protocol:
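Inhibition was scored from radiolabelled triglyceride separated by TLC, relative to vehicle and net of a 0-min background. The reaction ran for 30 min at room temperature (23 °C) in Tris-HCl pH 8.0 with MgCl2, BSA and Triton X-100. Substrates were 30 μM [14C]-oleoyl-CoA and 0.5 mM dioleoylglycerol, with mouse DGAT1 microsomes from baculovirus-infected insect cells as enzyme.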

`CCOc1ccccc1NC(=O)Nc1ccc(N2CCN(C(=O)Nc3c(F)cccc3C(F)(F)F)CC2)cc1` [Example 117, 4-{4-[3-(2-ethoxy-phenyl)-ureido]-phenyl}-piperazine-1-carboxylic acid (2-fluoro-6-trifluoromethyl-phenyl)-amide] gave a melting point of 139 to 141 °C. Moreover, at mouse DGAT1, the inhibition at 0.1 µg/mL was at least 50%.
Take `CCOc1ccc(C)cc1NC(=O)Nc1ccc(N2CCN(C(=O)Nc3c(C)cccc3C)CC2)cc1` [Example 118, 4-{4-[3-(2-ethoxy-5-methyl-phenyl)-ureido]-phenyl}-piperazine-1-carboxylic acid (2,6-dimethyl-phenyl)-amide]: the melting point was in the range of 222 to 225 °C. Further, the inhibition at 0.1 µg/mL at mouse DGAT1 is at least 50%.
For `CCOc1ccc(C)cc1NC(=O)Nc1ccc(N2CCN(C(=O)Nc3c(F)cccc3C(F)(F)F)CC2)cc1` [Example 119, 4-{4-[3-(2-ethoxy-5-methyl-phenyl)-ureido]-phenyl}-piperazine-1-carboxylic acid (2-fluoro-6-trifluoromethyl-phenyl)-amide], in that order: 144 to 146 °C and at least 50%.
The matching figures for `CCOc1ccc(C)cc1NC(=O)Nc1ccc(N2CCN(C(=O)Nc3ccc(C)cc3Cl)CC2)cc1` [Example 120, 4-{4-[3-(2-ethoxy-5-methyl-phenyl)-ureido]-phenyl}-piperazine-1-carboxylic acid (2-chloro-4-methyl-phenyl)-amide]: 119 to 122 °C and at least 50%.
The matching figures for `CCOc1ccccc1NC(=O)Nc1ccc(N2CCN(C(=O)Nc3ccc(C)cc3Cl)CC2)cc1` [Example 121, 4-{4-[3-(2-ethoxy-phenyl)-ureido]-phenyl}-piperazine-1-carboxylic acid (2-chloro-4-methyl-phenyl)-amide]: 179 to 181 °C and at least 50%.
In turn, `CCOc1ccc(F)cc1NC(=O)Nc1ccc(N2CCN(C(=O)Nc3ccc(C)cc3Cl)CC2)cc1` [Example 122, 4-{4-[3-(2-ethoxy-5-fluoro-phenyl)-ureido]-phenyl}-piperazine-1-carboxylic acid (2-chloro-4-methyl-phenyl)-amide] returned a melting point of 155 to 157 °C. In addition, on mouse DGAT1, the inhibition at 0.1 µg/mL is at least 50%.
For `COc1ccc(F)cc1NC(=O)Nc1ccc(N2CCN(C(=O)Nc3ccc(C)cc3Cl)CC2)cc1` [Example 123, 4-{4-[3-(5-fluoro-2-methoxy-phenyl)-ureido]-phenyl}-piperazine-1-carboxylic acid (2-chloro-4-methyl-phenyl)-amide], in that order: 233 to 235 °C and at least 50%.
For `COc1ccccc1NC(=O)Nc1ccc(N2CCN(C(=O)Nc3c(C)cccc3Cl)CC2)cc1` [Example 124, 4-{4-[3-(2-methoxy-phenyl)-ureido]-phenyl}-piperazine-1-carboxylic acid (2-chloro-6-methyl-phenyl)-amide], in that order: 245 to 247 °C and at least 50%.
The matching figures for `Cc1cccc(Cl)c1NC(=O)N1CCN(c2ccc(NC(=O)Nc3ccccc3F)cc2)CC1` [Example 125, 4-{4-[3-(2-fluoro-phenyl)-ureido]-phenyl}-piperazine-1-carboxylic acid (2-chloro-6-methyl-phenyl)-amide]: 232 to 234 °C and at least 50%.
For the compound `Cc1cccc(Cl)c1NC(=O)N1CCN(c2ccc(NC(=O)Nc3ccccc3Cl)cc2)CC1` [Example 126, 4-{4-[3-(2-chloro-phenyl)-ureido]-phenyl}-piperazine-1-carboxylic acid (2-chloro-6-methyl-phenyl)-amide], the melting point is > 260 °C (dec.). Further, at mouse DGAT1, the inhibition at 0.1 µg/mL was at least 50%.
The matching figures for `Cc1ccccc1NC(=O)Nc1ccc(N2CCN(C(=O)Nc3c(C)cccc3Cl)CC2)cc1` [Example 127, 4-[4-(3-o-tolyl-ureido)-phenyl]-piperazine-1-carboxylic acid (2-chloro-6-methyl-phenyl)-amide]: > 260 °C (dec.) and at least 50%.
For `CCc1ccccc1NC(=O)Nc1ccc(N2CCN(C(=O)Nc3c(C)cccc3Cl)CC2)cc1` [Example 128, 4-{4-[3-(2-ethyl-phenyl)-ureido]-phenyl}-piperazine-1-carboxylic acid (2-chloro-6-methyl-phenyl)-amide], in that order: 217 to 219 °C and at least 50%.
`COc1ccc(C)cc1NC(=O)Nc1ccc(N2CCN(C(=O)Nc3ccc(Br)cc3Cl)CC2)cc1` [Example 129, 4-{4-[3-(2-methoxy-5-methyl-phenyl)-ureido]-phenyl}-piperazine-1-carboxylic acid (4-bromo-2-chloro-phenyl)-amide] displayed a melting point of 140 to 142 °C. Moreover, the inhibition at 0.1 µg/mL on mouse DGAT1 was at least 50%.
The matching figures for `CCCc1ccccc1NC(=O)Nc1ccc(N2CCN(C(=O)Nc3c(C)cccc3Cl)CC2)cc1` [Example 130, 4-{4-[3-(2-propyl-phenyl)-ureido]-phenyl}-piperazine-1-carboxylic acid (2-chloro-6-methyl-phenyl)-amide]: 216 to 217 °C and at least 50%.
The matching figures for `Cc1ccc(C)c(NC(=O)Nc2ccc(N3CCN(C(=O)Nc4c(C)cccc4Cl)CC3)cc2)c1` [Example 131, 4-{4-[3-(2,5-dimethyl-phenyl)-ureido]-phenyl}-piperazine-1-carboxylic acid (2-chloro-6-methyl-phenyl)-amide]: 251 to 253 °C and at least 50%.
The matching figures for `COc1ccc(Cl)cc1NC(=O)Nc1ccc(N2CCN(C(=O)Nc3c(Cl)cccc3Cl)CC2)cc1` [Example 132, 4-{4-[3-(5-chloro-2-methoxy-phenyl)-ureido]-phenyl}-piperazine-1-carboxylic acid (2,6-dichloro-phenyl)-amide]: 189 to 190 °C and at least 50%.
Turning to `CCOc1ccccc1NC(=O)Nc1ccc(N2CCN(C(=O)Nc3c(Cl)cccc3Cl)CC2)cc1` [Example 133, 4-{4-[3-(2-ethoxy-phenyl)-ureido]-phenyl}-piperazine-1-carboxylic acid (2,6-dichloro-phenyl)-amide], the melting point lay within 164 to 166 °C. The inhibition at 0.1 µg/mL on mouse DGAT1 is at least 50%.
`CCOc1ccc(C)cc1NC(=O)Nc1ccc(N2CCN(C(=O)Nc3c(Cl)cccc3Cl)CC2)cc1` [Example 134, 4-{4-[3-(2-ethoxy-5-methyl-phenyl)-ureido]-phenyl}-piperazine-1-carboxylic acid (2,6-dichloro-phenyl)-amide]: the melting point was in the range of 159 to 161 °C. In addition, the inhibition at 0.1 µg/mL at mouse DGAT1 is at least 50%.
For `CCOc1ccc(Cl)cc1NC(=O)Nc1ccc(N2CCN(C(=O)Nc3c(Cl)cccc3Cl)CC2)cc1` [Example 135, 4-{4-[3-(5-chloro-2-ethoxy-phenyl)-ureido]-phenyl}-piperazine-1-carboxylic acid (2,6-dichloro-phenyl)-amide], in that order: 135 to 137 °C and at least 50%.
